From patent publication US20220289724A1, “KIF18A INHIBITORS” (AMGEN INC., priority 2019, published 2022)
pIC50: −log10 of the molar value.

Target: T1, Recombinant human KIF18A (1-467 His-tagged) protein (Homo sapiens, UniProt Q8NI77)
T1 construct: Recombinant human KIF18A (1-467 His-tagged) protein; His; made in house
Test: KIF18A Enzyme Assay: microtubule-stimulated ATPase activity assay (ADP-Glo)
Format: biochemical
Conditions: KIF18A protein 30 nM, 30 μg/mL pig microtubules, ATP at Km 75 μM, ADP-Glo luminescence, RT
Text: KIF18A Enzyme Assay: Microtubule-stimulated ATPase activity assay is used to measure KIF18A enzyme activity after treatment with compound. Compounds were 2-fold serially diluted in DMSO (Sigma Inc) over 22-point concentration range. Recombinant human KIF18A (1-467 His-tagged) protein was expressed using a baculovirus system and purified by affinity chromatography by Amgen Inc. Concentrations of KIF18A protein, microtubules (MT), and ATP in the reaction were optimized for standardized homogenous enzyme assay using ADP-Glorm Kinase/ATPase Assay Kit (Promega Inc). The assay measures ADP formed from the ATPase reaction. […] Concentration-response curve-fitting and IC50 determination was performed using Genedata Screener Software (Standard 15.0.1, Genedata Inc) with a four-parameter logistic regression fit model.
Table A provides data for compounds exemplified in the present application and priority document thereof, as representative compounds of the present invention, as follows: chemical name (as named by either ACD software or ChemDraw (Professional 15.0)) and biological data (IC50 in μM). Ex. […] refers to Example No.

T1 sequence (Q8NI77 1-467): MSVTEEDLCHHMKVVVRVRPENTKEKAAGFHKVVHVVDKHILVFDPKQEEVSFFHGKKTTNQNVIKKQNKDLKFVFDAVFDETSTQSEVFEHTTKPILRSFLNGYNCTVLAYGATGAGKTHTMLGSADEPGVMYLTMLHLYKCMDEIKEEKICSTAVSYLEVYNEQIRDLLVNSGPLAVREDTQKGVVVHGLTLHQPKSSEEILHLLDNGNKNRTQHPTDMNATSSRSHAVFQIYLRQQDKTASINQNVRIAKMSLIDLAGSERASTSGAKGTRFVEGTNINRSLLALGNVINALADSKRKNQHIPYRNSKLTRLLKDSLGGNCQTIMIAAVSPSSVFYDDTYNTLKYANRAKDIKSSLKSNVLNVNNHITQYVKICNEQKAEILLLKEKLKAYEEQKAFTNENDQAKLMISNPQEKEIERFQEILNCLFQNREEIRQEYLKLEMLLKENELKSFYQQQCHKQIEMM
T1 sequence (P02550 whole entry partner): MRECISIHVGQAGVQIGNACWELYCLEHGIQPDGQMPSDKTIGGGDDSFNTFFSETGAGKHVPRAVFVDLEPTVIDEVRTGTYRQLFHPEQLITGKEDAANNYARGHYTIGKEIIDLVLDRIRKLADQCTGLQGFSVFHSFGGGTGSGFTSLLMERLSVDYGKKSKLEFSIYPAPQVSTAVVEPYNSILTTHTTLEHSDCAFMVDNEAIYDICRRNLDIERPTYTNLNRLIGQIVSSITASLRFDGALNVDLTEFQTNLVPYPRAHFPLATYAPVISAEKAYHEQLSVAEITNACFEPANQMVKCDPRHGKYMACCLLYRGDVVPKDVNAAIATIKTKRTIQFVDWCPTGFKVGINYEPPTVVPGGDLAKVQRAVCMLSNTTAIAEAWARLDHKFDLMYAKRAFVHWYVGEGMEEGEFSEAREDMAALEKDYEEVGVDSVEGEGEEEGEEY
T1 sequence (P02554 whole entry partner): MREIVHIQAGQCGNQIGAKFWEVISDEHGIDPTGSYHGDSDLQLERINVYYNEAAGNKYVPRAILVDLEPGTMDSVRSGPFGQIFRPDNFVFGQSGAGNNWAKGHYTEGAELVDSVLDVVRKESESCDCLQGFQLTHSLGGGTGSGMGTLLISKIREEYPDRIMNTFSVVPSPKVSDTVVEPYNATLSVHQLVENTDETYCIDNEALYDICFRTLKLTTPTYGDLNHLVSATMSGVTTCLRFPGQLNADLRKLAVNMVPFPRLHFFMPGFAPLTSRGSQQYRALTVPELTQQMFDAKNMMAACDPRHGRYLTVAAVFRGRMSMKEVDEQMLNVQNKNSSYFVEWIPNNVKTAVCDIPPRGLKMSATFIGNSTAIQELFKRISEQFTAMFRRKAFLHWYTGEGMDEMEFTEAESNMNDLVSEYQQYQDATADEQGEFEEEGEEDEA

| Structure (SMILES) | pIC50 |
| --- | --- |
| C[C@@H](CO)S(=O)(=O)Nc1ccc(C(=O)Nc2cccc(S(=O)(=O)NC(C)(C)C)c2)c(N2CCC3(CC2)CC3)c1 (single isomer, unassigned) [Example 105-1] | 7.38 |
| C[C@H](CO)S(=O)(=O)Nc1ccc(C(=O)Nc2cccc(S(=O)(=O)NC(C)(C)C)c2)c(N2CCC3(CC2)CC3)c1 (single isomer, unassigned) [Example 105-2] | 7.24 |
| CC(C)(C)NS(=O)(=O)c1cccc(NC(=O)c2ccc(S(=O)(=O)C3(C)COC3)cc2N2CCC3(CC2)CC3)c1 [Example 100, N-(3-(N-(tert-Butyl)sulfamoyl)phenyl)-4-((3-methyloxetan-3-yl)sulfonyl)-2-(6-azaspiro[2.5]octan-6-yl)benzamide] | 6.76 |
| CC(C)(C)NS(=O)(=O)c1cccc(NC(=O)c2ccc(S(C)(=O)=O)cc2N2CCC3(CC2)CC3)c1 [Example 100-1, N-(3-(N-(tert-butyl)sulfamoyl)phenyl)-4-(methylsulfonyl)-2-(6-azaspiro[2.5]octan-6-yl)benzamide] | 7.21 |
| CC(C)c1cccc(NC(=O)c2ccc(S(C)(=O)=O)cc2N2CCC3(CC2)CC3)c1 [Example 100-2, N-(3-isopropylphenyl)-4-(methylsulfonyl)-2-(6-azaspiro[2.5]octan-6-yl)benzamide] | 7.03 |
| CS(=O)(=O)c1ccc(C(=O)Nc2cccc(C3CC3)c2)c(N2CCC3(CC2)CC3)c1 [Example 100-3, N-(3-cyclopropylphenyl)-4-(methylsulfonyl)-2-(6-azaspiro[2.5]octan-6-yl)benzamide] | 6.73 |
| CC(C)(C)c1cccc(NC(=O)c2ccc(S(C)(=O)=O)cc2N2CCC3(CC2)CC3)c1 [Example 100-4, N-(3-(tert-butyl)phenyl)-4-(methylsulfonyl)-2-(6-azaspiro[2.5]octan-6-yl)benzamide] | 6.44 |
| CS(=O)(=O)c1ccc(C(=O)Nc2cccc3cccnc23)c(N2CCC3(CC2)CC3)c1 [Example 100-5, 4-(methylsulfonyl)-N-(quinolin-8-yl)-2-(6-azaspiro[2.5]octan-6-yl)benzamide] | 6.61 |
| Cc1ccnc2c(NC(=O)c3ccc(S(C)(=O)=O)cc3N3CCC4(CC3)CC4)cccc12 [Example 100-6, N-(4-methylquinolin-8-yl)-4-(methylsulfonyl)-2-(6-azaspiro[2.5]octan-6-yl)benzamide] | 7.21 |
| CS(=O)(=O)c1ccc(C(=O)Nc2cccc3c2OCCC3)c(N2CCC3(CC2)CC3)c1 [Example 100-7, N-(chroman-8-yl)-4-(methylsulfonyl)-2-(6-azaspiro[2.5]octan-6-yl)benzamide] | 7.35 |
| CS(=O)(=O)c1ccc(C(=O)Nc2cccc3ccoc23)c(N2CCC3(CC2)CC3)c1 [Example 100-8, N-(benzofuran-7-yl)-4-(methylsulfonyl)-2-(6-azaspiro[2.5]octan-6-yl)benzamide] | 6.70 |
| CS(=O)(=O)c1ccc(C(=O)Nc2cccc3ccsc23)c(N2CCC3(CC2)CC3)c1 [Example 100-9, N-(benzo[b]thiophen-7-yl)-4-(methylsulfonyl)-2-(6-azaspiro[2.5]octan-6-yl)benzamide] | 6.20 |

Continued, values first:

| pIC50 | Structure (SMILES) |
| --- | --- |
| 7.04 | CC(C)(C)NS(=O)(=O)c1cccc(NC(=O)c2ccc([C@@](C)(O)CO)cc2N2CCC3(CC2)CC3)c1 (single isomer, unassigned) [Example 108-1] |
| 6.85 | CC(C)(C)NS(=O)(=O)c1cccc(NC(=O)c2ccc([C@](C)(O)CO)cc2N2CCC3(CC2)CC3)c1 (single isomer, unassigned) [Example 108-2] |
| 6.85 | N=[S@](=O)(c1cccc(NC(=O)c2ccc(NS(=O)(=O)CCO)cc2N2CCC3(CC2)CC3)c1)N1CCC1 (single isomer, unassigned) [Example 112-1] |
| 6.80 | N=[S@@](=O)(c1cccc(NC(=O)c2ccc(NS(=O)(=O)CCO)cc2N2CCC3(CC2)CC3)c1)N1CCC1 (single isomer, unassigned) [Example 112-2] |
